Measurements taken from patent publication US12539287B2, “L-DOPA microbiome therapy” (Iowa State University Research Foundation, Inc., priority 2018, dated 2026).

Columns and labels:
[1] = humans; cited from earlier work
[2] = cited from earlier work
[3] = Bz 50 mg/kg 3 times/day
Description: Mice were orally administered a single daily dose of 10^9 CFU EcN^2L-DOPA or PBS and also Bz (50 mg/kg) 3 times/day for 1 and 2 days. Plasma samples collected through submandibular sampling prior to EcN^2L-DOPA treatment (serving as baseline), and at 4, 8, 16, 24 and 48 h post-EcN^2L-DOPA and Bz (50 mg/kg) treatment, were assayed for L-DOPA production by HPLC. […] We increased the dose and frequency of Bz because of its short half-life.

Compound	optimal therapeutic plasma levels [1]	solubility in water [2]	duration of Bz plasma levels [3]
N[C@@H](Cc1ccc(O)c(O)c1)C(=O)O [L-DOPA, (−)-L-a-amino-b-(3,4-dihydroxybenzene)propanoic acid]	300 to 1600 ng/mL	slightly soluble in water	
NC(CO)C(=O)NNCc1ccc(O)c(O)c1O (stereo not drawn) [Bz, benserazide]			up to 30 h
